According to patent US10548861B2 (Academia Sinica, priority 2015, dated 2020):
Read-outs that look alike come from different tables or passages of the source.

Assays:
[1] = tested on: Mino; assay: Drug combination cytotoxicity with BO-1055; format: cell-based, human
[2] = tested on: H187; assay: 72 hr cytotoxicity: SCLC classic; format: cell-based; details: Homo sapiens, NCI-H187
[3] = tested on: H526; assay: 72 hr cytotoxicity: SCLC variant; format: cell-based; details: Homo sapiens, NCI-H526
[4] = tested on: FTE-hTERT; assay: 72 hr cytotoxicity: Fallopian epithelium; format: cell-based; details: Homo sapiens, 72 h
[5] = tested on: H889; assay: 72 hr cytotoxicity: SCLC classic; format: cell-based; details: Homo sapiens, NCI-H889
[6] = tested on: H128; assay: 72 hr cytotoxicity: SCLC classic; format: cell-based; details: Homo sapiens, NCI-H128
[7] = tested on: H60; assay: 72 hr cytotoxicity: SCLC classic; format: cell-based; details: Homo sapiens
[8] = tested on: Saos-1; assay: Cytotoxicity: Osteosarcoma; details: Homo sapiens, read-out: cytotoxic activity (IC50)
[9] = tested on: Rhabdomyosarcoma cell lines; assay: Cytotoxicity on sarcoma panel; format: cell-based; details: Homo sapiens, read-out: IC50 range
[10] = tested on: TC-32; assay: Cytotoxicity: Ewing's sarcoma; details: Homo sapiens, TC-32, read-out: cytotoxic activity (IC50)
[11] = tested on: H417; assay: 72 hr cytotoxicity: SCLC variant; format: cell-based; details: Homo sapiens, NCI-H417
[12] = tested on: Osteosarcoma cell lines; assay: Cytotoxicity on sarcoma panel; format: cell-based; details: Homo sapiens, osteosarcoma lines highly resistant to BO-1055 (BO-1055 3 of 5; doxorubicin two lines); read-out: IC50 range
[13] = tested on: H209; assay: 72 hr cytotoxicity: SCLC classic; format: cell-based; details: Homo sapiens, NCI-H209
[14] = tested on: JEKO-1; assay: Drug combination cytotoxicity with BO-1055; format: cell-based; details: Homo sapiens, JeKo-1, 72 h, read-out: IC50 single drug
[15] = tested on: HBL2; assay: Cytotoxicity: Mantle Cell Lymphoma; details: Homo sapiens
[16] = tested on: H69; assay: 72 hr cytotoxicity: SCLC classic; format: cell-based; details: Homo sapiens, NCI-H69
[17] = tested on: H562; assay: 72 hr cytotoxicity: SCLC classic; format: cell-based; details: Homo sapiens
[18] = tested on: REC-1; assay: Cytotoxicity: Mantle Cell Lymphoma; details: Homo sapiens
[19] = tested on: normal cord blood CD34+ cells; assay: Cytotoxicity on normal cord blood CD34+ cells; format: cell-based; details: Homo sapiens, 72 h
[20] = tested on: BCI-NSI hTERT; assay: 72 hr cytotoxicity: Bronchial epithelium; format: cell-based; details: Homo sapiens, 72 h
[21] = tested on: H524; assay: 72 hr cytotoxicity: SCLC variant; format: cell-based; details: Homo sapiens, NCI-H524
[22] = tested on: Z-138; assay: Drug combination cytotoxicity with BO-1055; format: cell-based, human
[23] = tested on: REC-1; assay: Drug combination cytotoxicity with BO-1055; format: cell-based, human
[24] = tested on: U2OS; assay: Cytotoxicity: Osteosarcoma; details: Homo sapiens, read-out: cytotoxic activity (IC50)
[25] = tested on: Ewing's sarcoma cell lines; assay: Cytotoxicity on sarcoma panel; format: cell-based; details: Homo sapiens, read-out: IC50 range
[26] = tested on: BMMSC; assay: 72 hr cytotoxicity: BM Mesenchyme; format: cell-based; details: Homo sapiens, 72 h
[27] = tested on: H719; assay: 72 hr cytotoxicity: SCLC classic; format: cell-based; details: Homo sapiens
[28] = tested on: H211; assay: 72 hr cytotoxicity: SCLC variant; format: cell-based; details: Homo sapiens, NCI-H211
[29] = tested on: A673; assay: Cytotoxicity: Ewing's sarcoma; details: Homo sapiens, A673, read-out: cytotoxic activity (IC50)
[30] = tested on: HBL2; assay: Drug combination cytotoxicity with BO-1055; format: cell-based; details: Homo sapiens, HBL2, 72 h, read-out: IC50 single drug
[31] = tested on: H841; assay: 72 hr cytotoxicity: SCLC variant; format: cell-based; details: Homo sapiens, NCI-H841
[32] = tested on: spontaneous murine B-cell lymphoma; assay: Cytotoxicity: lymphoma cells with no stromal support; details: read-out: cytotoxicity IC50, Murine BCL, spontaneous CD19+
[33] = tested on: Granta; assay: Drug combination cytotoxicity with BO-1055; format: cell-based, human
[34] = tested on: NECB1; assay: Drug combination cytotoxicity with BO-1055; format: cell-based, human
[35] = tested on: H249; assay: 72 hr cytotoxicity: SCLC classic; format: cell-based; details: Homo sapiens
[36] = tested on: H678; assay: 72 hr cytotoxicity: SCLC classic; format: cell-based; details: Homo sapiens
[37] = tested on: Granta-519; details: TK, AEW, SOR, TOPO, publically accessible data (Broad, Sanger), read-out: cytotoxicity IC50; cited from earlier work
[38] = tested on: Mino; details: TK, AEW, SOR, TOPO, publically accessible data (Broad, Sanger), read-out: cytotoxicity IC50; cited from earlier work
[39] = tested on: Ly10; details: TK, AEW, SOR, TOPO, publically accessible data (Broad, Sanger), read-out: cytotoxicity IC50; cited from earlier work
[40] = Homo sapiens, 72 h, read-out: IC50 single drug

## COc1cccc2c1C(=O)c1c(O)c3c(c(O)c1C2=O)C[C@@](O)(C(=O)CO)C[C@@H]3O[C@H]1C[C@H](N)[C@H](O)[C@H](C)O1 [Doxorubicin]
[1]
  interaction with BO-1055 (combo-1, combo-2): both combinations were synergistic
[1]; Homo sapiens, MINO, 72 h, read-out: IC50 single drug
  IC50: 135 nM
[2]
  IC50: 30 nM
[3]
  IC50: 10 nM
[4]
  IC50: 6250 nM
[5]
  IC50: 20 nM
[6]
  IC50: 100 nM
[7]
  IC50: 130 nM
[8]
  IC50: 25 nM
[9]
  IC50: 11 nM
[10]
  IC50: 5 nM
[11]
  IC50: 10 nM
[12]
  IC50: 25 to 90 nM
[13]
  IC50: 30 nM
[14]
  IC50: 98 nM
[15]; HBL2
  IC50: 28 nM
[15]; HBL2, read-out: cytotoxicity IC50
  IC50: 30 nM
[16]
  IC50: 60 nM
[17]
  IC50: 170 nM
[18]; Rec1
  IC50: 51 nM
[18]; Rec1, read-out: cytotoxicity IC50
  IC50: 50 nM
[19]
  IC50: 200 nM
[20]
  IC50: 500 nM
[21]
  IC50: 20 nM
[22]
  interaction with BO-1055 (combo-1, combo-2): both combinations were synergistic
[22]; Homo sapiens, Z-138, 72 h, read-out: IC50 single drug
  IC50: 438 nM
[23]
  interaction with BO-1055 (combo-1, combo-2): both combinations were antagonistic
[23]; Homo sapiens, Rec1, 72 h, read-out: IC50 single drug
  IC50: > 10000 nM
[24]
  IC50: 90 nM
[25]
  IC50: 5 to 380 nM
[26]
  IC50: 450 nM
[27]
  IC50: 90 nM
[28]
  IC50: 150 nM
[29]
  IC50: 380 nM
[30]
  IC50: 51 nM
[31]
  IC50: 20 nM
[32]
  IC50: 124 nM
[33]
  interaction with BO-1055 (combo-1, combo-2): synergistic with combo-1 and antagonistic against combo-2
[33]; [40]
  IC50: 257 nM
[34]
  interaction with BO-1055 (combo-1, combo-2): synergistic with combo-1 and antagonistic against combo-2
[34]; [40]
  IC50: 1230 nM
[35]
  IC50: 130 nM
[36]
  IC50: 10 nM

## CNC(=O)c1cc(Oc2ccc(NC(=O)Nc3ccc(Cl)c(C(F)(F)F)c3)cc2)ccn1 [SOR]
[37]
  IC50: 28000 nM
[38]
  IC50: 28000 nM
[39]
  IC50: 28000 nM
